Source: ChEMBL document CHEMBL1909046, “DrugMatrix in vitro pharmacology data”
Where a SMILES comes first, the peptide text is derived from it. Bridges are numbered along the chain shown (N, C = ends). [ ]: non-standard residue; d: D form. The star is where a group is joined. Threoninol(2S,3R) = C[C@@H](O)[C@H](CO)N*

Tests used:
[1] = DRUGMATRIX: Glutamate, Kainate radioligand binding (ligand: [3H] Kainic acid); format: cell membranes, Rattus norvegicus, Wistar, Brain, Membrane; conditions: Not Active = under 50% inhibition at 10 µM
[2] = biological target: T1, Muscarinic acetylcholine receptor M2 (Homo sapiens, UniProt P08172); format: cell membranes, CHO-K1, Membrane; conditions: cho-k1; further: in other assays of this panel Not Active means under 50% inhibition at 10 µM
T1 sequence (P08172 whole entry): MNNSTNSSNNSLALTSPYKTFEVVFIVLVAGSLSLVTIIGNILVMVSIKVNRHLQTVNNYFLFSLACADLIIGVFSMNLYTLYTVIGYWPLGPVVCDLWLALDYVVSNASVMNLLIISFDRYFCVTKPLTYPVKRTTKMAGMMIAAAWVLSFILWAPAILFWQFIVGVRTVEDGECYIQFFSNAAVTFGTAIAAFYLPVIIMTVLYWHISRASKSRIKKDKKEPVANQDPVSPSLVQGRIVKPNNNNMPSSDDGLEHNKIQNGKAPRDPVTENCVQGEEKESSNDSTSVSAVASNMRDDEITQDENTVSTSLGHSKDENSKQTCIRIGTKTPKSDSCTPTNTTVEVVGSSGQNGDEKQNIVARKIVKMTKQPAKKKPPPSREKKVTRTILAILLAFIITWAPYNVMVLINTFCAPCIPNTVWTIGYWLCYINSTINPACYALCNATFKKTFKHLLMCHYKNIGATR

Caspase-1 = biological target: T2, Caspase-1 (Homo sapiens, UniProt P29466); set-up: species or system Escherichia coli;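 further: Caspase-1 enzyme inhibition assay with a peptide substrate; in other assays of this panel Not Active means under 50% inhibition at 10 µM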
T2 sequence (P29466 whole entry): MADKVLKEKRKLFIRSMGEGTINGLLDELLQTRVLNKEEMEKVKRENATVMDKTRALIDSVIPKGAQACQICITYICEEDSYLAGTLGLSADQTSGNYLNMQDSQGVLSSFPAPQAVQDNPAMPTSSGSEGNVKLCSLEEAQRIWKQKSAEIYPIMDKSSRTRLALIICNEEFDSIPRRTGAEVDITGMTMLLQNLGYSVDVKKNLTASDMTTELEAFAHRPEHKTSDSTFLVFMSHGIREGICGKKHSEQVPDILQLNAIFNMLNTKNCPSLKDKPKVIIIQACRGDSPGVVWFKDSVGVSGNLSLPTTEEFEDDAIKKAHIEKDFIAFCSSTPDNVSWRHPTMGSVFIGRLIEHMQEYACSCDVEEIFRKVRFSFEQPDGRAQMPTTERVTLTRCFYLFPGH

Insulin receptor = Insulin receptor (Rattus norvegicus, UniProt P15127); format: cell membranes, Wistar, Liver, Membrane; further: in other assays of this panel Not Active means under 50% inhibition at 10 µM
[3] = DRUGMATRIX: Sigma2 radioligand binding (ligand: [3H] Ifenprodil); format: cell membranes, Rattus norvegicus, Wistar, Brain, Membrane; conditions: Not Active = under 50% inhibition at 10 µM
[4] = biological target: T3, 3-hydroxy-3-methylglutaryl-coenzyme A reductase (Homo sapiens, UniProt P04035); set-up: species or system Escherichia coli;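 further: enzyme inhibition assay of HMG-CoA reductase using radiolabeled [14C]HMG-CoA as substrate; in other assays of this panel Not Active means under 50% inhibition at 10 µM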
T3 sequence (P04035 whole entry): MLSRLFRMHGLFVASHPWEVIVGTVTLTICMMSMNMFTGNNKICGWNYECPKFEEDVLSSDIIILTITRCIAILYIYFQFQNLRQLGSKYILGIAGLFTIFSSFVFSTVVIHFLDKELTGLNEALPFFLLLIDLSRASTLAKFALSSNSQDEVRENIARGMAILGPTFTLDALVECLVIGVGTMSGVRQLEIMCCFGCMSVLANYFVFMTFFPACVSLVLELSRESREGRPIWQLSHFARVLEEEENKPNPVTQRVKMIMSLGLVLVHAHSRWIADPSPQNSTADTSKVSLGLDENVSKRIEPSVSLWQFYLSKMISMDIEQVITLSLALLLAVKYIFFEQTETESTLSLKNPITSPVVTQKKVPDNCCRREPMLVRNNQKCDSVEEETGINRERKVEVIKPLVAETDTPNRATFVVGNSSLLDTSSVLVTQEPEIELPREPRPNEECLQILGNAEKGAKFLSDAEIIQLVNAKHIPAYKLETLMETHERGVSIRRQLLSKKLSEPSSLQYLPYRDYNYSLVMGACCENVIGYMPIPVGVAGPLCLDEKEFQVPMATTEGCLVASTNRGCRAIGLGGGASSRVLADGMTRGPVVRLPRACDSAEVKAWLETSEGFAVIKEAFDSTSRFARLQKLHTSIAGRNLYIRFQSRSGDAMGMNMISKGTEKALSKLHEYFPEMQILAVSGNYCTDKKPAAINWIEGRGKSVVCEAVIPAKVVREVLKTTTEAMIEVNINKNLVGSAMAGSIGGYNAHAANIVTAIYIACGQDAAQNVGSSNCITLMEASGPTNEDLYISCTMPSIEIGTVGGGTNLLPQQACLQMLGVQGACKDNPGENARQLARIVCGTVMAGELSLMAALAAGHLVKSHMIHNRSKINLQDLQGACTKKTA

Thromboxane-A synthase = biological target: T4, Thromboxane-A synthase (Homo sapiens, UniProt P24557); test: biochemical; format: tissue-based, Platelet; conditions: platelet
T4 sequence (P24557 whole entry): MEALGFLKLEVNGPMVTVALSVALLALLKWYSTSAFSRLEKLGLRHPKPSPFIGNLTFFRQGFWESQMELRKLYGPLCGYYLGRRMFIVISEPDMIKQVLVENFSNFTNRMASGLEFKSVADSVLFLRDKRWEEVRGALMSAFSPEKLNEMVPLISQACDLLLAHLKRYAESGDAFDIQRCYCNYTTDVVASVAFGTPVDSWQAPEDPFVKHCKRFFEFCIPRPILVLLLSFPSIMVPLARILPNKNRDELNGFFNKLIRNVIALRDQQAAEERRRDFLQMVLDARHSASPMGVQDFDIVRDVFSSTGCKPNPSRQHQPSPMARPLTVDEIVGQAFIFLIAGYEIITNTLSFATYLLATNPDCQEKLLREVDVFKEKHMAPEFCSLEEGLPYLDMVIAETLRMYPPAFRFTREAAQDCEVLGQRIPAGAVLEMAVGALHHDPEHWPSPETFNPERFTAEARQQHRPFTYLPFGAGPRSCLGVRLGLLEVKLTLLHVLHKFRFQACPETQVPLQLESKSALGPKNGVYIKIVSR

Insulin receptor, sequence (P15127 27-759 limits assumed): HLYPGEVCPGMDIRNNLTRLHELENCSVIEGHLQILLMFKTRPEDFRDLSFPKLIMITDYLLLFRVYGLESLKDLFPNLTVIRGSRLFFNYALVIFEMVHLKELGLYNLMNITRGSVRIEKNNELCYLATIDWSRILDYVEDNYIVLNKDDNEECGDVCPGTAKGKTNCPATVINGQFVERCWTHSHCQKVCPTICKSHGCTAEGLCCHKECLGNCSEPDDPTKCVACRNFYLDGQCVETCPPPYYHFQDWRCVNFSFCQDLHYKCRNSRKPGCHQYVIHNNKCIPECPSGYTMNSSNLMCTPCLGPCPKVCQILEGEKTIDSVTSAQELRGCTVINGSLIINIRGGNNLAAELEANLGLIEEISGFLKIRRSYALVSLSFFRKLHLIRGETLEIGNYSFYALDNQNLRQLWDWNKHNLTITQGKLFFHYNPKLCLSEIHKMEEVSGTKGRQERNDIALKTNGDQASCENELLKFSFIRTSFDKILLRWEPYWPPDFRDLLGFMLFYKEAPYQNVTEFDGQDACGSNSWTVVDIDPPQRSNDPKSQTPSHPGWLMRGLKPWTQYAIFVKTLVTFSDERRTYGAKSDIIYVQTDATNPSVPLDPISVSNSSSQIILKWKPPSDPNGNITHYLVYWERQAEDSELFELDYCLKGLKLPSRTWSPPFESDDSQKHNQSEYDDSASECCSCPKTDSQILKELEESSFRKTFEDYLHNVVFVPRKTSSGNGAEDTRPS
Insulin receptor, sequence (P15127 764-1383 limits assumed): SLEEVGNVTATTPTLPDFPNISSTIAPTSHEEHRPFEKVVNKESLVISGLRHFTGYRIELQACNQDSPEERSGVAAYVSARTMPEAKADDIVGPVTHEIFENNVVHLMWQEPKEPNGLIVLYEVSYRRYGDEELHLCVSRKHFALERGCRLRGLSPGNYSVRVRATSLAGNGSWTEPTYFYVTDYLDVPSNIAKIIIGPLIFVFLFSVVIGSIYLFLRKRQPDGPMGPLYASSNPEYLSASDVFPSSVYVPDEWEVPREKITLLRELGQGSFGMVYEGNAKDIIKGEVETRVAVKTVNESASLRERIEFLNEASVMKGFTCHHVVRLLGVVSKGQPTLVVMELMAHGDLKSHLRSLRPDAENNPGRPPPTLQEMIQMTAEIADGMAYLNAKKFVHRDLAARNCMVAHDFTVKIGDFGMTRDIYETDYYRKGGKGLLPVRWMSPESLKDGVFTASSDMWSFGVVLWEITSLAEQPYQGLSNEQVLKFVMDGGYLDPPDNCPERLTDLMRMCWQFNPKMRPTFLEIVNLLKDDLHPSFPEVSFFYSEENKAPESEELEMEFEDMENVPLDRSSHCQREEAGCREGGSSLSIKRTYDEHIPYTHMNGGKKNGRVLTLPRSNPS

Compound | IC50 [1] | Ki [1] | IC50 [2] | Ki [2] | IC50 (Caspase-1) | Ki (Caspase-1) | IC50 (Insulin receptor) | Ki (Insulin receptor) | IC50 [3] | Ki [3] | IC50 [4] | Ki [4] | IC50 (Thromboxane-A synthase) | Ki (Thromboxane-A synthase) | IC50 ([3]; read-out: IC50) [nM] | Ki ([3]; read-out: Ki) [nM]
CADMIUM DICHLORIDE | Not Active | Not Active | Not Active | Not Active | Not Active | Not Active | Not Active | Not Active | Not Active | Not Active | Not Active | Not Active | Not Active | Not Active |  | 
CCCN(CCC)C(=O)C(CCC(=O)O)NC(=O)c1ccccc1 (centres undefined) [PROGLUMIDE] | Not Active | Not Active | Not Active |  | Not Active |  | Not Active |  | Not Active | Not Active | Not Active |  | Not Active |  |  | 
O=C(N[C@H](CO)[C@H](O)c1ccc([N+](=O)[O-])cc1)C(Cl)Cl [CHLORAMPHENICOL] | Not Active | Not Active | Not Active |  | Not Active |  | Not Active |  | Not Active | Not Active | Not Active |  | Not Active |  |  | 
CCCCOc1ccc(OCCCN2CCOCC2)cc1 [PRAMOXINE] | Not Active | Not Active | Not Active |  | Not Active |  | Not Active |  |  |  | Not Active |  | Not Active |  | 1030 | 633
CC(C)(C(=O)c1cccnc1)c1cccnc1 [METYRAPONE] | Not Active | Not Active | Not Active |  | Not Active |  | Not Active |  | Not Active | Not Active | Not Active |  | Not Active |  |  | 
CC(=O)Nc1cccc(O)c1 [METACETAMOL] | Not Active | Not Active | Not Active |  | Not Active |  | Not Active |  | Not Active | Not Active | Not Active |  | Not Active |  |  | 
NC(=O)c1cnccn1 [PYRAZINAMIDE] | Not Active | Not Active | Not Active |  | Not Active |  | Not Active |  | Not Active | Not Active | Not Active |  | Not Active |  |  | 
CC[C@@H](CO)NCCN[C@@H](CC)CO [ETHAMBUTOL] | Not Active | Not Active | Not Active |  | Not Active |  | Not Active |  | Not Active | Not Active | Not Active |  | Not Active |  |  | 
CC(C)(Oc1ccc(C2CCCc3ccccc32)cc1)C(=O)O (centres undefined) [NAFENOPIN] | Not Active | Not Active | Not Active |  | Not Active |  | Not Active |  | Not Active | Not Active | Not Active |  | Not Active |  |  | 
C[C@@H]1C[C@@H]([C@H](O)CC2CC(=O)NC(=O)C2)C(=O)[C@@H](C)C1 [CYCLOHEXIMIDE] | Not Active | Not Active | Not Active |  | Not Active |  | Not Active |  | Not Active | Not Active | Not Active |  | Not Active |  |  | 
CCn1cc(C(=O)O)c(=O)c2cc(F)c(N3CCN(C)CC3)cc21 [PEFLOXACIN] | Not Active | Not Active | Not Active |  | Not Active |  | Not Active |  | Not Active | Not Active | Not Active |  | Not Active |  |  | 
CCN(CC)CCOC(=O)c1ccc(N)cc1 [PROCAINE] | Not Active | Not Active | Not Active |  | Not Active |  | Not Active |  | Not Active | Not Active | Not Active |  | Not Active |  |  | 
CCCC(CCC)C(=O)O [VALPROIC ACID] | Not Active | Not Active | Not Active |  | Not Active |  | Not Active |  | Not Active | Not Active | Not Active |  | Not Active |  |  | 
S=C=Nc1cccc2ccccc12 [1-NAPHTHYLISOTHIOCYANATE] | Not Active | Not Active | Not Active |  | Not Active |  | Not Active |  | Not Active | Not Active | Not Active |  | Not Active |  |  | 
COc1ccc2cc([C@H](C)C(=O)O)ccc2c1 [NAPROXEN] | Not Active | Not Active | Not Active |  | Not Active |  | Not Active |  | Not Active | Not Active | Not Active |  | Not Active |  |  | 
Cc1ccccc1C(=O)N1CCC(Cc2ccccc2)CC1 | Not Active | Not Active | Not Active |  | Not Active |  | Not Active |  | Not Active | Not Active | Not Active |  | Not Active |  |  | 
C[C@@H](O)[C@H](CO)NC(=O)[C@@H]1CSSC[C@H](NC(=O)[C@H](N)Cc2ccccc2)C(=O)N[C@@H](Cc2ccccc2)C(=O)N[C@H](Cc2c[nH]c3ccccc23)C(=O)N[C@@H](CCCCN)C(=O)N[C@@H]([C@@H](C)O)C(=O)N1 (H-[dF]CF[dW]KTC-{Threoninol(2S,3R)}; disulfide 2-7) | Not Active | Not Active | Not Active |  | Not Active |  | Not Active |  | Not Active | Not Active | Not Active |  | Not Active |  |  | 
Cc1nccn1CC1CCc2c(c3ccccc3n2C)C1=O (centres undefined) [ONDANSETRON] | Not Active | Not Active | Not Active |  | Not Active |  | Not Active |  | Not Active | Not Active | Not Active |  | Not Active |  |  | 
C#C[C@]1(O)CC[C@H]2[C@@H]3CCc4cc(OC)ccc4[C@H]3CC[C@@]21C [MESTRANOL] | Not Active | Not Active | Not Active |  | Not Active |  | Not Active |  | Not Active | Not Active | Not Active |  | Not Active |  |  | 
OC(CCN1CCCCC1)(c1ccccc1)C1CCCCC1 (centres undefined) [TRIHEXYPHENIDYL] | Not Active | Not Active |  |  | Not Active |  | Not Active |  |  |  | Not Active |  | Not Active |  | 3120 | 1920
